Experimental data reported in paper PMC11921695 (BMC Cancer, 2025).
“And” between values parts separate entries of the source, which are not always exact repeats. Identical values can stand only once.

Assays:
[1] = test system: Japanese patients, NSCLC; set-up: method as in study D1532C00067; settings: selumetinib + Docetaxel, ref study D1532C00067; cited from earlier work
[2] = test system: HIV-1; experiment: HIV control: HIV-1 viral load; type: in vivo, human; settings: during the trial, patients receiving selumetinib + ART
Protocol: (§1) HIV control was assessed by plotting longitudinal HIV-1 viral load and CD4 cell counts over time for the per-protocol population. Due to missing data at the pre-treatment cycle 1 […] visit, the CD4 cell counts from the screening visit were used as the baseline comparator. Paired t-tests were done to test the difference between CD4 cell counts at screening, cycle 3 day 22 and cycle 6 day 22. Due to multiple testing, a Bonferroni correction was applied to the significance threshold, calculated as 0.05 ÷ 2 = 0.025.
(§2) HIV-1 viral load and CD4 counts were measured as per standard of care at hospital sites. To measure the concentration of angiogenesis markers, 8.5 ml blood was collected in BD vacutainer no-additive serum tubes. Samples were kept at room temperature for 30 minutes before centrifugation at 2000 g for 20 minutes at room temperature. Serum samples were then stored at -80 °C prior to analysis. Serum Ang-1, Ang-2 and TIE levels were assessed using commercial ELISAs (Thermo Fisher Scientifc hAng-1 (EHANGPT1), R&D DuoSet Ang-2 (DY623), eBioscience hTIE2 (BMS2042)), according to manufacturer instructions at laboratories at the University of Sheffield.

[3] = test system: patients with HIV-associated KS; experiment: Number of selumetinib cycles completed and reasons for discontinuation; type: in vivo; settings: 6/16 participants
Description: Reasons for discontinuation were reported in relation to the number of cycles received.

[4] = Selumetinib and N-desmethyl selumetinib plasma levels (phase I pharmacokinetics); type: in vivo; settings: for Selumetinib Concentration, 2 Hours Post-Dose / Selumetinib Concentration, 6 Hours Post-Dose / Selumetinib Concentration, Day 1 Pre-Dose: plasma, individual patients; for Selumetinib Concentration, 2 Hours Post-Dose / Selumetinib Concentration, 6 Hours Post-Dose: cycle 1 day 1
Protocol: Pharmacokinetic studies will be performed in phase I only . […]
compartmental analysis will estimate C max, AUC0-24 , clearance and t1/2 from per ipheral blood measurements of both AZD 6244 and its metabolites pr e- dose, and at 2 and 6 hours post dose on day 1 and pre- dos e day 15. Labor atory bioanalysis will be performed by Quotient […]
• Samples to be collected Cycle 1 Day 1 Pre -treatment, 2 hours and 6 hours post dose (aft er f irst set of tablets) pre- dose Cycle 1 Day 15.
• 5mls of venous blood should be collected into a K2- ED TA BD vacutainer • Samples should be inverted several times to ensure adequate mix ing. […]
• 2x 500µ l of plasma should be aliquoted to polypropylene eppendorf tubes.
• Tubes should be individually labeled with the patient’s study number and sample time- point.
• Samples should be stored at - 200C.
• 1 x sample to be transferred on dry ice to Quotient Bioresearch for bioanalysis (all four sample time- points day 1 pre- d ose, and at 2 and 6 hours post d ose and pre- dose day 1 5 can be shipped together – please refer to the Laboratory Manual for c ourier details).
• 1 x sample to be stored at the study centre as back-up.

[5] = test system: CD4 cell counts; experiment: HIV control: CD4 cell counts; type: in vivo, human
Protocol: as §1, §2

[6] = test system: p38 and JNK; set-up: method as in Banerji, et al.; settings: protocol background; ref Banerji, et al.; cited from earlier work

For Cn1cnc2c(F)c(Nc3ccc(Br)cc3Cl)c(C(=O)NOCCO)cc21 [selumetinib, 6-(4-Bromo-2-chloro-phenylamino)-7-fluro-3-methyl-3 H-benzoimidazole-5-carboxylic acid (2-hydroxy-ethoxy)-amide hydrogen sulphate], the “febrile neutropenia, patients treated” value [1] is listed as 3 of 8, the HIV-1 viral load [2] is listed as “remained undetectable” and the “participants who discontinued selumetinib due to toxicity before completing six cycles” value [3] is listed as 37.5%. The “plasma levels compared with other selumetinib studies” value ([4]; phase I, comparison with refs 19-22) was “consistent with published reports from other selumetinib studies”, the “Selumetinib Concentration, 2 Hours Post-Dose” value ([4]; starting dose 50 mg bd) was 201 ng/mL and 304 ng/mL and 238 ng/mL and 274 ng/mL and the “Selumetinib Concentration, 6 Hours Post-Dose” value ([4]; starting dose 50 mg bd) was 26.5 ng/mL and 48.5 ng/mL and 47.9 ng/mL. The “Selumetinib Concentration, 2 Hours Post-Dose” value ([4]; starting dose 75 mg bd) was 1280 ng/mL and 1250 ng/mL and 361 ng/mL and 247 ng/mL and 504 ng/mL and 1040 ng/mL, the “Selumetinib Concentration, 6 Hours Post-Dose” value ([4]; starting dose 75 mg bd) was 249 ng/mL and 180 ng/mL and 284 ng/mL and 452 ng/mL and 66.1 ng/mL and the “Selumetinib Concentration, Day 1 Pre-Dose” value ([4]; starting dose 50 mg bd) was “BLQ”. For the same compound, the “Selumetinib Concentration, Day 1 Pre-Dose” value ([4]; starting dose 75 mg bd) was “BLQ”, the “mean increase in CD4 cell counts” value ([5]; cycle 3 day 22 vs screening, per-protocol population, 95% CI: 41.91, 280.63, p = 0.013) was 161.27 cells/mm^3 and the “increase in CD4 cell counts” value ([5]; cycle 6 day 22 vs pre-treatment, 95% CI: 31.87, 273.47, p = 0.023) was 152.67 cells/mm^3. For the same compound, the “activity against other kinases including p38 and JNK” value [6] was “inactive, or minimally active”.
